From US20120245177A1, “CRYSTALLINE LEVOFOLINIC ACID AND PROCESS FOR ITS PREPARATION” (GMT FINE CHEMICALS SA, priority 2011, published 2012)

Assays:
[1] = Long-term stability test (ICH conditions); format: physicochemical; conditions: for Related substances: N^10-CHO-folic acid (D) (% m/m) / Related substances: PABG (A) (% area) / Sum of all relates substances (% area) / Water content (%) / Assay of Levofolinic acid (% m/m) / Appearance / Aspect of a 1.0% m/V solution in Tris solution corrected at pH = 8.1: Absorbance at 420 nm / Related substances: 5-CHO-4H-Pteroic acid (E) (% area) / Related substances: Any individual unknown impurities / Related substances: Dihydrofolic acid (G) (% area) / Related substances: Folic acid (C) (% area) / Related substances: N^5-N^10-diformyl-THF (B) (% area) / Related substances: N^10-CHO-dihydrofolic acid (F) (% area) / Optical rotation of a 1.0% m/V solution in Tris solution corrected at pH = 8.1 / Content of Dextrofolinic acid (H): long-term: 25±2° C., 60±5% relative humidity; for Assay of Levofolinic acid (% m/m): anhydrous and solvent free basis; for Appearance: specification white to pale yellow powder
Procedure: Two specimens of the product obtained in example 1 are subjected to accelerated stability tests and long-term stability tests, respectively; the tests are carried out according to ICH conditions. Long-term: 25±2° C., 60±5% relative humidity Analytical methods used for the stability studies tests are described in the calcium levofolinate monograph of the European Pharmacopoeia.

[2] = Solubility in water or hydroalcoholic mixtures; format: physicochemical; conditions: pH range between 3.0 and 4.5
[3] = easily converted into by-products if pH lower than 3.0 or temperature reaches 60° C. during pH lowering; per U.S. Pat. No. 6,441,168 B1; cited from earlier work

Compound: Nc1nc(=O)c2c([nH]1)NC[C@H](CNc1ccc(C(=O)N[C@@H](CCC(=O)O)C(=O)O)cc1)N2C=O [Example 1, (6S)—N(5)-formyl-5,6,7,8-tetrahydrofolic acid]
- Related substances: N^10-CHO-folic acid (D) (% m/m) ([1]; 6 months): <0.10 % m/m
- Related substances: PABG (A) (% area) ([1]; 6 months): 0.10 % area
- Sum of all relates substances (% area) ([1]; 6 months): 0.70 % area
- Water content (%) ([1]; 6 months): 0.9%
- Assay of Levofolinic acid (% m/m) ([1]; 6 months): 98.8 % m/m
- Appearance ([1]; 6 months): Conform
- Aspect of a 1.0% m/V solution in Tris solution corrected at pH = 8.1: Absorbance at 420 nm ([1]; 9 months): 0.04
- Related substances: 5-CHO-4H-Pteroic acid (E) (% area) ([1]; 9 months): 0.35 % area
- Related substances: Any individual unknown impurities ([1]; 9 months): <0.10 % area
- Related substances: Dihydrofolic acid (G) (% area) ([1]; 9 months): <0.10 % area
- Related substances: Folic acid (C) (% area) ([1]; 9 months): <0.10 % area
- Related substances: N^5-N^10-diformyl-THF (B) (% area) ([1]; 9 months): <0.10 % area
- Related substances: N^10-CHO-dihydrofolic acid (F) (% area) ([1]; 9 months): 0.15 % area
- Related substances: N^10-CHO-folic acid (D) (% m/m) ([1]; 9 months): <0.10 % m/m
- Related substances: PABG (A) (% area) ([1]; 9 months): <0.10 % area
- Sum of all relates substances (% area) ([1]; 9 months): 0.55 % area
- Water content (%) ([1]; 9 months): 1.0%
- Assay of Levofolinic acid (% m/m) ([1]; 9 months): 99.4 % m/m
- Appearance ([1]; 9 months): Conform
- Aspect of a 1.0% m/V solution in Tris solution corrected at pH = 8.1: Absorbance at 420 nm ([1]; 12 months): 0.06
- Related substances: 5-CHO-4H-Pteroic acid (E) (% area) ([1]; 12 months): 0.34 % area
- Related substances: Any individual unknown impurities ([1]; 12 months): <0.10 % area
- Related substances: Dihydrofolic acid (G) (% area) ([1]; 12 months): <0.10 % area
- Related substances: Folic acid (C) (% area) ([1]; 12 months): <0.10 % area
- Related substances: N^5-N^10-diformyl-THF (B) (% area) ([1]; 12 months): <0.10 % area
- Related substances: N^10-CHO-dihydrofolic acid (F) (% area) ([1]; 12 months): 0.18 % area
- Related substances: N^10-CHO-folic acid (D) (% m/m) ([1]; 12 months): <0.10 % m/m
- Related substances: PABG (A) (% area) ([1]; 12 months): 0.11 % area
- Sum of all relates substances (% area) ([1]; 12 months): 0.63 % area
- Water content (%) ([1]; 12 months): 1.1%
- Assay of Levofolinic acid (% m/m) ([1]; 12 months): 99.4 % m/m
- Appearance ([1]; 12 months): Conform
- Aspect of a 1.0% m/V solution in Tris solution corrected at pH = 8.1: Absorbance at 420 nm ([1]; 18 months): 0.05
- Optical rotation of a 1.0% m/V solution in Tris solution corrected at pH = 8.1 ([1]; 18 months): −13.1°
- Related substances: 5-CHO-4H-Pteroic acid (E) (% area) ([1]; 18 months): 0.36 % area
- Related substances: Any individual unknown impurities ([1]; 18 months): <0.10 % area
- Related substances: Dihydrofolic acid (G) (% area) ([1]; 18 months): <0.10 % area
- Related substances: Folic acid (C) (% area) ([1]; 18 months): <0.10 % area
- Related substances: N^5-N^10-diformyl-THF (B) (% area) ([1]; 18 months): <0.10 % area
- Related substances: N^10-CHO-dihydrofolic acid (F) (% area) ([1]; 18 months): 0.17 % area
- Related substances: N^10-CHO-folic acid (D) (% m/m) ([1]; 18 months): <0.10 % m/m
- Related substances: PABG (A) (% area) ([1]; 18 months): 0.11 % area
- Sum of all relates substances (% area) ([1]; 18 months): 0.63 % area
- Water content (%) ([1]; 18 months): 0.9%
- Assay of Levofolinic acid (% m/m) ([1]; 18 months): 100.2 % m/m
- Appearance ([1]; 18 months): Conform
- Aspect of a 1.0% m/V solution in Tris solution corrected at pH = 8.1: Absorbance at 420 nm ([1]; 24 months): 0.06
- Content of Dextrofolinic acid (H) ([1]; 24 months): <0.10%
- Related substances: 5-CHO-4H-Pteroic acid (E) (% area) ([1]; 24 months): 0.31 % area
- Related substances: Any individual unknown impurities ([1]; 24 months): <0.10 % area
- Related substances: Dihydrofolic acid (G) (% area) ([1]; 24 months): <0.10 % area
- Related substances: Folic acid (C) (% area) ([1]; 24 months): <0.10 % area
- Related substances: N^5-N^10-diformyl-THF (B) (% area) ([1]; 24 months): <0.10 % area
- Related substances: N^10-CHO-dihydrofolic acid (F) (% area) ([1]; 24 months): 0.16 % area
- Related substances: N^10-CHO-folic acid (D) (% m/m) ([1]; 24 months): <0.10 % m/m
- Related substances: PABG (A) (% area) ([1]; 24 months): 0.13 % area
- Sum of all relates substances (% area) ([1]; 24 months): 0.66 % area
- Water content (%) ([1]; 24 months): 0.7%
- Assay of Levofolinic acid (% m/m) ([1]; 24 months): 99.4 % m/m
- Appearance ([1]; 24 months): Conform
- Aspect of a 1.0% m/V solution in Tris solution corrected at pH = 8.1: Absorbance at 420 nm ([1]; 36 months): 0.08
- Content of Dextrofolinic acid (H) ([1]; 36 months): <0.10%
- Optical rotation of a 1.0% m/V solution in Tris solution corrected at pH = 8.1 ([1]; 36 months): −14.9°
- Related substances: 5-CHO-4H-Pteroic acid (E) (% area) ([1]; 36 months): 0.33 % area
- Related substances: Any individual unknown impurities ([1]; 36 months): <0.10 % area
- Related substances: Dihydrofolic acid (G) (% area) ([1]; 36 months): <0.10 % area
- Related substances: Folic acid (C) (% area) ([1]; 36 months): <0.10 % area
- Related substances: N^5-N^10-diformyl-THF (B) (% area) ([1]; 36 months): <0.10 % area
- Related substances: N^10-CHO-dihydrofolic acid (F) (% area) ([1]; 36 months): 0.25 % area
- Related substances: N^10-CHO-folic acid (D) (% m/m) ([1]; 36 months): <0.10 % m/m
- Related substances: PABG (A) (% area) ([1]; 36 months): 0.16 % area
- Sum of all relates substances (% area) ([1]; 36 months): 0.73 % area
- Water content (%) ([1]; 36 months): 1.0%
- Assay of Levofolinic acid (% m/m) ([1]; 36 months): 99.6 % m/m
- Appearance ([1]; 36 months): Conform
- Stability (conclusion from stability data of tables 2 and 3) ([1]; may resist unaltered during a shelf-life of up to three years): stable
- Stability compared with known forms ([1]; versus calcium levofolinate of the known art or levofolinic acid amorphous of U.S. Pat. No. 5,134,235): better properties
- Solubility [2]: scarcely soluble
- Stability [3]: unstable
